Assays:
[1] = molecular target: T1, Carnitine O-palmitoyltransferase 2, mitochondrial (Homo sapiens, UniProt P23786); test: Inhibitory potency against Carnitine Palmitoyltransferase (CPT-II); Range = 32-235 uM
T1 sequence (P23786 whole entry): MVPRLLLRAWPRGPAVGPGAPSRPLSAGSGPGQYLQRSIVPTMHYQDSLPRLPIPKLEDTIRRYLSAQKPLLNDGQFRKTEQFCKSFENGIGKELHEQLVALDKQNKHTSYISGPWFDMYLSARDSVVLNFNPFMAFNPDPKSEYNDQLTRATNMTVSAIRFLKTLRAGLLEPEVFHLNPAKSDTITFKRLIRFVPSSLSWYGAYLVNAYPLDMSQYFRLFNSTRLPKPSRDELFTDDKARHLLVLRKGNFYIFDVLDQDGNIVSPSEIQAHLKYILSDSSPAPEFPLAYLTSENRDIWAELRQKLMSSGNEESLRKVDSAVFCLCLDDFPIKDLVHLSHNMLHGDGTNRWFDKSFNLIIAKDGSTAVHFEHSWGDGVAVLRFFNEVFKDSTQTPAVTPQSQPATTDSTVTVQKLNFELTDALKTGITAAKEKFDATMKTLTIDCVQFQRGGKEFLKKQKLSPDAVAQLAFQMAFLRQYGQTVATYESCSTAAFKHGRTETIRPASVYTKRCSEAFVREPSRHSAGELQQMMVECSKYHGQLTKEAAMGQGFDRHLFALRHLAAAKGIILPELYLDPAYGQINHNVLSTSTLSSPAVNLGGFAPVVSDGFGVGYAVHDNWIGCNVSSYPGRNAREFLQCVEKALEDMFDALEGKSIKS

[2] = molecular target: T2, Peroxisomal carnitine O-octanoyltransferase (Homo sapiens, UniProt Q9UKG9); test: Inhibitory potency against carnitine octanoyltransferase (COT); Range = 1300-4000 uM
T2 sequence (Q9UKG9 whole entry): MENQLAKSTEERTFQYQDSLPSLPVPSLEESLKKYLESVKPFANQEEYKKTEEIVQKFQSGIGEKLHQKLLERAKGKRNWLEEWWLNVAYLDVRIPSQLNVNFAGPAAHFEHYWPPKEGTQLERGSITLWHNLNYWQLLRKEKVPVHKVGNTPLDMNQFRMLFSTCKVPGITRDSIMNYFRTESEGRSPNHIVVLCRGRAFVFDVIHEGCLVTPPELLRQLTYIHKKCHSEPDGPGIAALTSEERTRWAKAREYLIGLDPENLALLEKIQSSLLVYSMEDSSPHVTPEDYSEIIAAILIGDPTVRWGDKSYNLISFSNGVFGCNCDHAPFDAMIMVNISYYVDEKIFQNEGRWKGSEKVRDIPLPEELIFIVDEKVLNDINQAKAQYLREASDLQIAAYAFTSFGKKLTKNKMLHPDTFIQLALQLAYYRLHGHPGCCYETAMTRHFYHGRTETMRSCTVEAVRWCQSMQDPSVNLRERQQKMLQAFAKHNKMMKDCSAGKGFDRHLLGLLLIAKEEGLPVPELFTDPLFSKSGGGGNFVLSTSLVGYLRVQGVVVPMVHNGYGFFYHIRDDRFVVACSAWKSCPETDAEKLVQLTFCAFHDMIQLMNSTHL

IC50 [1]: 235 µM | IC50 [2]: 4000 µM
SMILES: CCCCCCCCCCCCCCCC[C@@]1(O)C[N+](C)(C)CCO1

Reference: ChEMBL document CHEMBL1127274, “Evaluation of (2S,4S)/(2R,4R) and (2S,4R)/(2R,4S) 6,6-N,N-dimethyl-2-methyl-2-oxo-1,3-dioxa-4-hexadecyl-6,aza-2-phosphacyclooctane bromide as inhibitors for protein kinase C, carnitine octanoyltransferase, and carnitine palmitoyltransferase” (Bioorg Med Chem Lett, 1994)
